Test system: derived cardiac cell line
Experiment: Effect of hypertrophy inducing drugs on derived cardiac cell line (cell size change)
Format: cell-based, human
Conditions: 24 hrs after drug administration; phase-contrast images before and after (FIG. 8)
Method: The effect of hypertrophy inducing drugs on derived cardiac cell line was tested. A response to cardiac toxic reagents is important in evaluating the properties of derived cardiac cell line and the future usage of the cells for testing cardiac toxic reagents as well as the mechanistic study on cardiomyopathy. Tumor necrosis factor (TNF)-α was used for the induction and compared the cell size changes at 24 hrs after drug administration.

## Tumor necrosis factor (TNF)-α [TNF-α]
  cell size changes: increase in the sizes of treated cardiac cells
